Values after ≈ are worked out from the molar mass of the structure shown. Read-outs that look alike come from different tables or passages of the source.

Series [1] is described as follows: Saturated solubility (Cs) measured to establish sink conditions. It counts as physicochemical. Here is the method: Prior to carrying out in vitro release studies, the saturated solubility of diltiazem HCI was measured in order to establish sink conditions.
Prior to carrying out in vitro release studies, the saturated solubility of diltiazem base was measured in order to establish sink conditions. […] The microsphere systems studied had diltiazem base starting loadings of 10% w/w, 20% w/w, 30% w/w, and 50% w/w, D 50% of […], respectively, and were prepared by Method A using the Ultra Turrax.

The conditions of series [2]: cited from earlier work.

In the case of `COc1ccc([C@@H]2Sc3ccccc3N(CCN(C)C)C(=O)[C@@H]2OC(C)=O)cc1` [Diltiazem HCI], the solubility in series [1] (aqueous buffer, thermodynamic from solid, phosphate buffer pH 7.4, read-out: Cs (saturated solubility)) was 2.39 mg/mL (≈ 5.77 mM); in series [1] (pH 1.2, read-out: Cs (saturated solubility)) it was > 1000 mg/mL.
Take `COc1ccc([C@@H]2Sc3ccccc3N(CCN(C)C)C(=O)[C@@H]2OC(C)=O)cc1` [Diltiazem base]: the solubility is 227 mg/mL (≈ 549 mM) in series [1] (pH 1.2, simulated gastric fluid, thermodynamic from solid) and 1.06 mg/mL (≈ 2.56 mM) in series [1] (pH 7.4, aqueous buffer, thermodynamic from solid). Also, the pKa entry in series [2] is reported as “around 8”.

As usually defined, the solubility is the dissolved amount per volume that the medium holds.

The values above are taken from patent publication EP0754034B1, “EFFERVESCENT PHARMACEUTICAL FORMULATIONS CONTAINING CONTROLLED RELEASE BIODEGRADABLE MICROCAPSULES” (ELAN CORPORATION, Plc, priority 1994, dated 1995).
